Test [1] relates to SMN2 full length splicing in MCF-7 cells. The experiment in a line: 17-DMAG HSP90 inhibition, RT-PCR of SMN exon 7 splicing with or without heat shock. The settings on record: for SMN2 full length splicing: 8 hours. Type of test: cell-based. The protocol:
FIG. 7 provide an image and a graph showing that HSP90 inhibition prevents heat-induced SMN splicing correction. HSP90 inhibition was performed with 17-DMAG in MCF-7 cells. Dose responses were analyzed at 0, 10, 20, 40 nM 17-DMAG for 8 hours, with or without 41° C. heat treatment. Total RN A was harvested and RT-PCR amplification of SMN transcripts was used to observe splicing levels of exon 7. Significance levels are: * p-value<0.05, **p-value <0.01.
To validate the role of HSP90 in the SMN2 splicing under heat shock, the HSP90 ATPase inhibitor, 17-DMAG was administered to MCF-7 cells. 17-DMAG was administered at 0, 10 nM, 20 nM, and 40 nM concentrations the same time as the heat shock treatment, for the duration of 8 hours. Experiments were performed in parallel at 37° C. and 41° C. […] (FIG. 7). […] Full length SMN2 is quantitated for all samples and three trials are graphed, showing significant alterations in SMN splicing.
17-DMAG (17-Dimethylaminoethylamino-17-demethoxygeldanamycin) was purchased from Cayman Chemicals and resuspended in DMSO to a 20 mM stock. Then treatments were administered to cultured cells at a density of 75% in 6 well plates.
Cells grown under normal conditions (37° C.) were grown in a 5% C02, humidified incubator. Cells grown under heat shock conditions (38°-41° C.) were cultured at 5% C02, humidified incubators set to respective temperatures and monitored for temperature fluctuations with calibrated digital thermometer. Cells were maintained at their temperature treatment for the duration of the time point and harvested for RNA or protein directly following treatment.
Total RNA was isolated from samples using RNeasy kits (Qiagen). cDNA was created from RNA with Roche Transcriptor Reverse Transcriptase. cDNA was created from 1.5 ug of total RNA using random hexamers (Roche). PCR was performed with Sigma Taq Polymerase to detect exon 7 splicing of SMN1 and SMN2 transcripts. Primers were designed to flank exon 7 to visualize both full length and exon-skipped products: forward primer in exon 6 and reverse primer in exon 8. PCR cycles were performed with the following conditions: annealing temperature 62° C., 30 sec; 72° C. extension, 1 min; for 35 cycles. Importantly, there exists a unique digestion site (Ddel) within this PCR amplicon in exon 8 of SMN2. Therefore, to distinguish between SMN1 and SMN2transcripts, PCR products were digested with the enzyme Ddel. Subsequent digested PCR products were then resolved on 2.5% agarose gels (product sizes: SMN1 full-length: 507 bp, SMN1A7: 453 bp, SMN2 full-length: 392 bp, SMN2M: 338 bp). Splicing ratios were determined by densitometry (ImageQuant software, GE Healthcare Life Sciences) and statistical analysis (two tailed t test) performed using Graphpad Prism software.

In test [2] the test system is SMN2 exon 7 inclusion in differentiated SH-SY5Y cells. The experiment in a line: Oxidative stress treatment, RT-PCR of SMN2 splicing. Type of test: cell-based. The following applies: 20 μM for 24 hours (oxidative stress). On the procedure:
FIGS. 2A-2C provide graphs and images showing that heat shock increases the functional splicing product of SMN2 in a dose and time-dependent manner. A. Neuroblastoma cell line, SHSY-5Y, were differentiated for 7-9 days in 5 μM retinoic acid and then treated with various stresses to characterize the level of SMN2 as a stress-responsive gene. RNA splicing levels of SMN1 and 2 were observed by performing RTPCR analysis on total mRNA harvested from cell lysates. […] B. To test the cell-type specificity of the heat shock effect on SMN splicing, we performed a heat shock treatment on several cell lines. All treatments were performed with 24 hours of 41° C. and compared with NT (37° C.) quantitation is shown (n-3). This treatment was performed in Differentiated SHSY-5Y cells, SMA patient fibroblasts (GM03813), SMA carrier fibroblasts (GM03814), and a breast cancer cell line (MCF-7) cells. Heat treatment induces a significant change in splicing in all cell lines tested. C. To test the duration of heat treatment necessary for heat shock induced splicing correction a time course was performed. Differentiated SHSY-5Y cells were treated with 41° C. for 1, 4, 8, and 24 hour time intervals. D. To test the quantity of heat required to elicit splicing correction, a heat treatment dose response was performed. Differentiated SHSY-5Y cells were treated with temperatures from 37° to 41° C. for 8 hours. […]

`CO[C@H]1/C=C\C=C(/C)C(=O)NC2=CC(=O)C(NCCN(C)C)=C(C[C@@H](C)C[C@H](OC)[C@H](O)[C@@H](C)/C=C(\C)[C@@H]1OC(N)=O)C2=O` [17-DMAG, 17-Dimethylaminoethylamino-17-demethoxygeldanamycin]: the “SMN2 full length splicing” value in test [1] (10 nM, 37° C.) was “significant decrease”; in test [1] (10 nM, 41° C.) it was “significantly decreased the full length splicing to even below baseline splicing at 37 °C”; in test [1] (20 nM, 37° C.) it was “began to approach basal splicing levels”; in test [1] (20 nM, 41° C.), “significantly decreased the full length splicing to even below baseline splicing at 37 °C”; in test [1] (40 nM, 37° C.) it was “began to approach basal splicing levels”; in test [1] (40 nM, 41° C.), “significantly decreased the full length splicing to even below baseline splicing at 37 °C”. For the same molecule, in test [1] (heat shock), the “heat shock-induced full length SMN2 splicing (summary statement)” value was “prevents”.
For `OO` [HO2], the “SMN2 exon 7 inclusion” value in test [2] is “mild decreases in exon 7 inclusion”.

Values taken from US20250268748A1, “TREATMENT OF SPINAL MUSCULAR ATROPHY BY INDUCING HEAT SHOCK RESPONSE” (THE RESEARCH INSTITUTE AT NATIONWIDE CHILDREN'S HOSPITAL, priority 2016, published 2025).
